Reference: article PMC9338045, “An acquired phosphatidylinositol 4-phosphate transport initiates T-cell deterioration and leukemogenesis” (Nature Communications, 2022)
Read-outs that look alike come from different tables or passages of the source.

How the values were obtained:
OSBP = target: T1, OSBP (Homo sapiens, UniProt P22059); test: SPR (Biacore 8K, protein immobilised on CM5 by amine coupling, kon/koff); format: binding
T1 construct: full-length cDNA in pGEX-4T-1, E. coli Rosetta(DE3), GST fusion, GST tag removed by thrombin
T1 sequence (P22059 1-807): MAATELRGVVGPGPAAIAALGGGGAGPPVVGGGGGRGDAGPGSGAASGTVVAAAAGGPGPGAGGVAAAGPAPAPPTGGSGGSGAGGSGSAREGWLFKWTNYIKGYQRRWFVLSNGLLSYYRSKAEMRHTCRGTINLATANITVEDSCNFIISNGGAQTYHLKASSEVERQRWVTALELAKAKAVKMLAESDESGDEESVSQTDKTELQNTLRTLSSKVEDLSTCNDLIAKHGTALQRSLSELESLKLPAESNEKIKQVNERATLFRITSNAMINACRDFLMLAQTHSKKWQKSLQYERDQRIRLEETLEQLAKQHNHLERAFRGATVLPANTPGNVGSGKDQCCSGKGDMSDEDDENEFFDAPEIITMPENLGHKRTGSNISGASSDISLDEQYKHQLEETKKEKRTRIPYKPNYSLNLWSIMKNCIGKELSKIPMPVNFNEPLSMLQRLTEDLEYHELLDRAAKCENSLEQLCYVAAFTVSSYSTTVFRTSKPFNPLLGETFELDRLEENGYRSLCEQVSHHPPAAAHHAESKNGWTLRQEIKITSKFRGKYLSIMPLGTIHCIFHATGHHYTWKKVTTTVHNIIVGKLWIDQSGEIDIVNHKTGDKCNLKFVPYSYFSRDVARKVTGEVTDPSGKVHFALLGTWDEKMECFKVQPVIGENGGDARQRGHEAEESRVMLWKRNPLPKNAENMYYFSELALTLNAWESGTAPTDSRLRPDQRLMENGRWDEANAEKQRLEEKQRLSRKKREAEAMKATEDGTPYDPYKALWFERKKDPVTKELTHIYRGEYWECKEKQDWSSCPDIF

ORP4L = target: T2, ORP4L (Homo sapiens, UniProt Q969R2); test: as above; format: binding; conditions: PBST pH 7.4, 25 °C; acyl chains of PI(4)P not told for this test (diC8 named only for the competition test)
T2 construct: gene OSBP2; full-length cDNA in pGEX-4T-1, E. coli Rosetta(DE3), GST fusion, GST tag removed by thrombin
T2 sequence (Q969R2 1-916): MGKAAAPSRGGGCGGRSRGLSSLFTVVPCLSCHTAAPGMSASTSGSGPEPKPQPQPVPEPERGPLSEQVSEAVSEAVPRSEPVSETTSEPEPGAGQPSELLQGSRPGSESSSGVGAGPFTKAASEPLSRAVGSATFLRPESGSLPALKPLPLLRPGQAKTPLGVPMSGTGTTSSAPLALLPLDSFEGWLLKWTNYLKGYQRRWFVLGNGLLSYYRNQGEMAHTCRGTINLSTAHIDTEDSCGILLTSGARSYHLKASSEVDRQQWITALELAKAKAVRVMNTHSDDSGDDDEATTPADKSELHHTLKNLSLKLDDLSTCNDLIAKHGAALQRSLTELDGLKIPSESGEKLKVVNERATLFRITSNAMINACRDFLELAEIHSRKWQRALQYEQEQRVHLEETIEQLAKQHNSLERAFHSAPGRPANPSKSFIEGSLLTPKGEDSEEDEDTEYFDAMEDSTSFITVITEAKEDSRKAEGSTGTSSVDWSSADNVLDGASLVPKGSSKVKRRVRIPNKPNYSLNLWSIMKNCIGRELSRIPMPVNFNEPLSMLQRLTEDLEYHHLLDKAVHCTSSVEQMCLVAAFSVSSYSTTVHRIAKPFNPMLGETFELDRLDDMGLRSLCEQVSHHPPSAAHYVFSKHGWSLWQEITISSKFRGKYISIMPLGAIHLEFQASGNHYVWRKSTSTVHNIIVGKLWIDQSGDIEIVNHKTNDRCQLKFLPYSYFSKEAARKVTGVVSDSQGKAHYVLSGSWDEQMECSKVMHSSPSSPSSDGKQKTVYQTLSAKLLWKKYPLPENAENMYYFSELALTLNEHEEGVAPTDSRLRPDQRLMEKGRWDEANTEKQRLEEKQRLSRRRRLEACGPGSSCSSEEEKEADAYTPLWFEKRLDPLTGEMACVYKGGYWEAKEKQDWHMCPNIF

Row | Kd (OSBP; PBST pH 7.4, 25 °C, acyl chains of PI(4)P not told for this test (diC8 named only for the competition test)) | Kd (ORP4L) | Molecule | Kd (OSBP)
1 | 4.3 ± 1.2 µM | 12.7 ± 2.1 µM | PI(4)P | –
2 | – | – | COc1ccc(C(=O)O[C@H]2[C@H](O[C@@H]3[C@@H](OC(C)=O)[C@H](O[C@H]4C[C@H]5[C@@H]6CC=C7C[C@@H](O)CC[C@]7(C)[C@H]6CC[C@]5(C)[C@@]4(O)[C@H](C)C(=O)CCC(C)C)OC[C@@H]3O)OC[C@@H](O)[C@@H]2O)cc1 [OSW-1] | 1.8 ± 0.37 µM
